{"source": "patent US8119624B2", "about": "“Fused phenyl amido heterocyclic compounds” (Pfizer Inc., priority 2006, dated 2012)", "target": "T1, Full-length glucokinase (beta cell isoform) (Homo sapiens, UniProt P35557)", "T1 construct": "Full-length glucokinase (beta cell isoform) was His-tagged at N-terminus; His tag (N); made in house", "T1 sequence (P35557 1-465)": "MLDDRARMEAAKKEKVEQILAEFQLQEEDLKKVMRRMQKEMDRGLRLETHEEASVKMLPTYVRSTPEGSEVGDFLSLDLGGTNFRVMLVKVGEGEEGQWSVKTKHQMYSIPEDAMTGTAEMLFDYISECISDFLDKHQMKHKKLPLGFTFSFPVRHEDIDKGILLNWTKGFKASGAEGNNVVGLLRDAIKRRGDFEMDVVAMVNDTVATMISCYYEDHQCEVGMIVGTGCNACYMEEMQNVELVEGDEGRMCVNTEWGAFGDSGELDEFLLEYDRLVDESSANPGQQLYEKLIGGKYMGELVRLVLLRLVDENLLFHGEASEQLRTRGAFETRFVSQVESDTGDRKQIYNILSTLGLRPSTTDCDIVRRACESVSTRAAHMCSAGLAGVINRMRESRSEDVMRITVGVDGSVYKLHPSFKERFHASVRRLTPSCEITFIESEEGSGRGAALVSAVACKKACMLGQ", "test": "Glucokinase biochemical assay (PK/LDH-coupled, NADH depletion at 340 nm): % activation, EC50, % max activation", "details": "5 mM glucose; for activation at 10 µM: 10 uM compound, % Activation=(Va/Vo−1)×100, read-out: % Activation at 10 uM; for EC50: GK activation, read-out: EC50; for Emax: fitted maximum activation, read-out: % Max Activation", "outline": "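Activation expressed as (Va/Vo−1)×100, where initial rates with and without compound come from NADH depletion at 340 nm over 200–900 s. Enzyme is His-tagged human beta-cell GK, full length, run at room temperature in HEPES buffer with 1 mM ATP and 5 mM glucose. DMSO 1%.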", "data": [{"smiles": "Cn1ccc(NC(=O)c2cc(Oc3ccc(C(=O)N4CCOCC4)c(F)c3)c3c(c2)OC(C)(C)C3)n1", "note": "[Example 51, 4-[3-Fluoro-4-(morpholine-4-carbonyl)-phenoxy]-2,2-dimethyl-2,3-dihydro-benzofuran-6-carboxylic acid(1-methyl-1H-pyrazol-3-yl)-amide]", "values": [{"measurement": "activation at 10 µM", "result": 129, "unit": "%"}, {"measurement": "EC50", "result": 250, "unit": "nM"}, {"measurement": "Emax", "result": 130, "unit": "%"}]}, {"smiles": "CC(C)Oc1cc(C(=O)Nc2ccn(C)n2)cc2c1CC(CNC1CC1)O2", "note": "(stereo not drawn) [Example 219, 2-Cyclopropylaminomethyl-4-isopropoxy-2,3-dihydro-benzofuran-6-carboxylic acid (1-methyl-1H-pyrazol-3-yl)-amide]", "values": [{"measurement": "activation at 10 µM", "result": 8, "unit": "%"}]}, {"smiles": "Cc1ccc(NC(=O)c2cc(Oc3ccc(S(C)(=O)=O)cc3F)c3c(c2)OC(C)(C)C3)nc1", "note": "[Example 120, 4-(2-Fluoro-4-methanesulfonyl-phenoxy)-2,2-dimethyl-2,3-dihydro-benzofuran-6-carboxylic acid (5-methyl-pyridin-2-yl)-amide]", "values": [{"measurement": "activation at 10 µM", "result": 80.5, "unit": "%"}, {"measurement": "EC50", "result": 200, "unit": "nM"}, {"measurement": "Emax", "result": 79, "unit": "%"}]}, {"smiles": "Cc1ccc(NC(=O)c2cc(Oc3cc(F)ccc3S(C)(=O)=O)c3c(c2)OC(C)(CO)C3)nc1", "note": "(stereo not drawn) [Example 236, 4-(5-Fluoro-2-methanesulfonyl-phenoxy)-2-hydroxymethyl-2-methyl-2,3-dihydro-benzofuran-6-carboxylic acid (5-methyl-pyridin-2-yl)-amide]", "values": [{"measurement": "activation at 10 µM", "result": 55.6, "unit": "%"}, {"measurement": "EC50", "result": 2700, "unit": "nM"}, {"measurement": "Emax", "result": 66, "unit": "%"}]}, {"smiles": "CN(C)S(=O)(=O)c1ccc(Oc2cc(C(=O)Nc3ccn(C)n3)cc3c2CC(C)(C)O3)cc1F", "note": "[Example 130, 4-(4-Dimethylsulfamoyl-3-fluoro-phenoxy)-2,2-dimethyl-2,3-dihydro-benzofuran-6-carboxylic acid (1-methyl-1H-pyrazol-3-yl)-amide]", "values": [{"measurement": "activation at 10 µM", "result": 211, "unit": "%"}, {"measurement": "EC50", "result": 140, "unit": "nM"}, {"measurement": "Emax", "result": 236, "unit": "%"}]}, {"smiles": "COc1cnc(NC(=O)c2cc(Oc3ccc(S(=O)(=O)N(C)C)c(F)c3)c3cc(C)oc3c2)cn1", "note": "[Example 307, 4-{4-[(Dimethylamino)sulfonyl]-3-fluorophenoxy}-N-(5-methoxypyrazin-2-yl)-2-methyl-1-benzofuran-6-carboxamide]", "values": [{"measurement": "activation at 10 µM", "result": 153, "unit": "%"}, {"measurement": "EC50", "result": 400, "unit": "nM"}, {"measurement": "Emax", "result": 156, "unit": "%"}]}, {"smiles": "Cc1cc2c(Oc3ccc(S(C)(=O)=O)cn3)cc(C(=O)Nc3ccn(C)n3)cc2o1", "note": "[Example 283, 2-Methyl-N-(1-methyl-1H-pyrazol-3-yl)-4-(5-(methylsulfonyl)-pyridin-2-yloxy)-benzofuran-6-carboxamide]", "values": [{"measurement": "activation at 10 µM", "result": 132, "unit": "%"}, {"measurement": "EC50", "result": "> 10000", "unit": "nM"}]}, {"smiles": "Cn1ccc(NC(=O)c2cc(Oc3ccc(C#N)c(F)c3)c3c(c2)OC(C)(C)C3)n1", "note": "[Example 183, 4-(4-Cyano-3-fluoro-phenoxy)-2,2-dimethyl-2,3-dihydro-benzofuran-6-carboxylic acid (1-methyl-1H-pyrazol-3-yl)-amide]", "values": [{"measurement": "activation at 10 µM", "result": 237, "unit": "%"}, {"measurement": "EC50", "result": 1900, "unit": "nM"}, {"measurement": "Emax", "result": 236, "unit": "%"}]}, {"smiles": "COCC(C)Oc1cc(C(=O)Nc2ccn(C)n2)cc2c1CC(C)(C)O2", "note": "(stereo not drawn) [Example 84, 4-(2-Methoxy-1-methyl-ethoxy)-2,2-dimethyl-2,3-dihydro-benzofuran-6-carboxylic acid (1-methyl-1H-pyrazol-3-yl)-amide]", "values": [{"measurement": "activation at 10 µM", "result": 58.4, "unit": "%"}, {"measurement": "EC50", "result": "> 10000", "unit": "nM"}]}, {"smiles": "Cc1noc(COc2cc(C(=O)Nc3ccn(C)n3)cc3c2CC(C)(C)O3)n1", "note": "[Example 94, 2,2-Dimethyl-4-(3-methyl-[1,2,4]oxadiazol-5-ylmethoxy)-2,3-dihydro-benzofuran-6-carboxylic acid (1-methyl-1H-pyrazol-3-yl)-amide]", "values": [{"measurement": "activation at 10 µM", "result": 116, "unit": "%"}, {"measurement": "EC50", "result": 4400, "unit": "nM"}, {"measurement": "Emax", "result": 140, "unit": "%"}]}, {"smiles": "CN(C)C(=O)c1ccc(Oc2cc(C(=O)Nc3ccc(C(N)=O)cn3)cc3c2CC(C)(C)O3)cc1F", "note": "[Example 146, 6-{[4-(4-Dimethylcarbamoyl-3-fluoro-phenoxy)-2,2-dimethyl-2,3-dihydro-benzofuran-6-carbonyl]-amino}-nicotinamide]", "values": [{"measurement": "activation at 10 µM", "result": 25.1, "unit": "%"}]}, {"smiles": "Cc1cc2c(Oc3ccc(C(=O)N(C)C)nc3)cc(C(=O)Nc3cnn(C)n3)cc2o1", "note": "[Example 278, N,N-Dimethyl-5-(2-methyl-6-((2-methyl-2H-1,2,3-triazol-4-yl)carbamoyl)-benzofuran-4-yloxy)picolinamide]", "values": [{"measurement": "activation at 10 µM", "result": 131, "unit": "%"}, {"measurement": "EC50", "result": 470, "unit": "nM"}, {"measurement": "Emax", "result": 123, "unit": "%"}]}, {"smiles": "Cc1cc2c(Oc3ccc(C(=O)N(C)C)c(F)c3)cc(C(=O)Nc3ccn(C)n3)cc2o1", "note": "[Example 272, 4-(4-(Dimethylcarbamoyl)-3-fluorophenoxy)-2-methyl-N-(1-methyl-1H-pyrazol-3-yl)benzofuran-6-carboxamide]", "values": [{"measurement": "activation at 10 µM", "result": 49.6, "unit": "%"}, {"measurement": "EC50", "result": 310, "unit": "nM"}, {"measurement": "Emax", "result": 51, "unit": "%"}]}, {"smiles": "Cc1ccc(NC(=O)c2cc(Oc3ccc(S(C)(=O)=O)c(F)c3)c3c(c2)OC(C)(C)C3)nc1", "note": "[Example 116, 4-(3-Fluoro-4-methanesulfonyl-phenoxy)-2,2-dimethyl-2,3-dihydro-benzofuran-6-carboxylic acid (5-methyl-pyridin-2-yl)-amide]", "values": [{"measurement": "activation at 10 µM", "result": 110, "unit": "%"}, {"measurement": "EC50", "result": 73, "unit": "nM"}, {"measurement": "Emax", "result": 112, "unit": "%"}]}, {"smiles": "Cn1ccc(NC(=O)c2cc(Oc3ccc(S(C)(=O)=O)c(Cl)c3)c3c(c2)OC(C)(C)C3)n1", "note": "[Example 139, 4-(3-Chloro-4-methanesulfonyl-phenoxy)-2,2-dimethyl-2,3-dihydro-benzofuran-6-carboxylic acid (1-methyl-1H-pyrazol-3-yl)-amide]", "values": [{"measurement": "activation at 10 µM", "result": 242, "unit": "%"}, {"measurement": "EC50", "result": 550, "unit": "nM"}, {"measurement": "Emax", "result": 254, "unit": "%"}]}, {"smiles": "COCC1Cc2c(Oc3ccc(C(=O)N4CCC4)c(F)c3)cc(C(=O)Nc3ccn(C)n3)cc2O1", "note": "(stereo not drawn) [Example 204, 4-[4-(Azetidine-1-carbonyl)-3-fluoro-phenoxy]-2-methoxymethyl-2,3-dihydro-benzofuran-6-carboxylic acid (1-methyl-1H-pyrazol-3-yl)-amide]", "values": [{"measurement": "activation at 10 µM", "result": 73.9, "unit": "%"}, {"measurement": "EC50", "result": 2000, "unit": "nM"}, {"measurement": "Emax", "result": 94, "unit": "%"}]}, {"smiles": "Cn1ccc(NC(=O)c2cc(OCC3CC3)c3c(c2)OC(C)(C)C3)n1", "note": "[Example 89, 4-Cyclopropylmethoxy-2,2-dimethyl-2,3-dihydro-benzofuran-6-carboxylic acid (1-methyl-1H-pyrazol-3-yl)-amide]", "values": [{"measurement": "activation at 10 µM", "result": 139, "unit": "%"}, {"measurement": "EC50", "result": 3900, "unit": "nM"}, {"measurement": "Emax", "result": 157, "unit": "%"}]}, {"smiles": "Cn1ccc(NC(=O)c2cc(Oc3cc(F)ccc3C(=O)N3CCC3)c3c(c2)OC(C)(C)C3)n1", "note": "[Example 34, 4-[2-(Azetidine-1-carbonyl)-5-fluoro-phenoxy]-2,2-dimethyl-2,3-dihydro-benzofuran-6-carboxylic acid(1-methyl-1H-pyrazol-3-yl)-amide]", "values": [{"measurement": "activation at 10 µM", "result": 75.1, "unit": "%"}, {"measurement": "EC50", "result": "> 10000", "unit": "nM"}]}, {"smiles": "Cc1ccc(NC(=O)c2cc(Oc3ccc(S(C)(=O)=O)cc3)c3cc(Cn4ccnc4C)oc3c2)nc1", "note": "[Example 320, 2-[(2-Methyl-1H-imidazol-1-yl)methyl]-N-(5-methylpyridin-2-yl)-4-[4-(methylsulfonyl)phenoxy]-1-benzofuran-6-carboxamide]", "values": [{"measurement": "activation at 10 µM", "result": 39.2, "unit": "%"}, {"measurement": "EC50", "result": 2500, "unit": "nM"}, {"measurement": "Emax", "result": 41, "unit": "%"}]}, {"smiles": "CN(C)C1CN(C(=O)c2ccc(Oc3cc(C(=O)Nc4ccn(C)n4)cc4c3CC(C)(C)O4)c(F)c2)C1", "note": "[Example 44, 4-[4-(3-Dimethylamino-azetidine-1-carbonyl)-2-fluoro-phenoxy]-2,2-dimethyl-2,3-dihydro-benzofuran-6-carboxylic acid(1-methyl-1H-pyrazol-3-yl)-amide]", "values": [{"measurement": "activation at 10 µM", "result": 137, "unit": "%"}, {"measurement": "EC50", "result": 580, "unit": "nM"}, {"measurement": "Emax", "result": 146, "unit": "%"}]}, {"smiles": "Cc1cc2c(Oc3ccc(S(=O)(=O)N(C)C)c(F)c3)cc(C(=O)Nc3cnn(C)n3)cc2o1", "note": "[Example 306, 4-{4-[(Dimethylamino)sulfonyl]-3-fluorophenoxy}-2-methyl-N-(2-methyl-2H-1,2,3-triazol-4-yl)-1-benzofuran-6-carboxamide]", "values": [{"measurement": "activation at 10 µM", "result": 185, "unit": "%"}, {"measurement": "EC50", "result": 330, "unit": "nM"}, {"measurement": "Emax", "result": 186, "unit": "%"}]}, {"smiles": "CC(C)Oc1cc(C(=O)Nc2ccccn2)cc2c1CC(Cc1ccccc1)O2", "note": "(stereo not drawn) [Example 220, 2-Benzyl-4-isopropoxy-2,3-dihydro-benzofuran-6-carboxylic acid pyridin-2-ylamide]", "values": [{"measurement": "activation at 10 µM", "result": 13.8, "unit": "%"}]}, {"smiles": "COC(=O)c1ccc(NC(=O)c2cc(Oc3ccc(S(C)(=O)=O)cc3)c3cc(C)oc3c2)nc1", "note": "[Example 264, Methyl 6-(2-methyl-4-(4-(methylsulfonyl)phenoxy)benzofuran-6-carboxamido)nicotinate]", "values": [{"measurement": "activation at 10 µM", "result": 80.5, "unit": "%"}, {"measurement": "EC50", "result": 1300, "unit": "nM"}, {"measurement": "Emax", "result": 79, "unit": "%"}]}, {"smiles": "Cc1cc(NC(=O)c2cc(Oc3ccc(C(=O)N(C)C)c(F)c3)c3c(c2)OC(C)(C)C3)no1", "note": "[Example 143, 4-(4-Dimethylcarbamoyl-3-fluoro-phenoxy)-2,2-dimethyl-2,3-dihydro-benzofuran-6-carboxylic acid (5-methyl-isoxazol-3-yl)-amide]", "values": [{"measurement": "activation at 10 µM", "result": 47.8, "unit": "%"}, {"measurement": "EC50", "result": 179, "unit": "nM"}, {"measurement": "Emax", "result": 50, "unit": "%"}]}, {"smiles": "CN(C)C(=O)c1ccc(Oc2cc(C(=O)Nc3ccccn3)cc3c2CC(C)(C)O3)cc1", "note": "[Example 157, 4-(4-Dimethylcarbamoyl-phenoxy)-2,2-dimethyl-2,3-dihydro-benzofuran-6-carboxylic acid pyridin-2-ylamide]", "values": [{"measurement": "activation at 10 µM", "result": 69.2, "unit": "%"}, {"measurement": "EC50", "result": 190, "unit": "nM"}, {"measurement": "Emax", "result": 71, "unit": "%"}]}]}
